Laboratory results published in ChEMBL document CHEMBL3745666, “Syntheses and anti-inflammatory activity of azamollugin derivatives” (Bioorg Med Chem Lett, 2016).

System: RAW264.7
Experiment: Antiinflammatory activity in mouse RAW264.7 cells assessed as inhibition of LPS-induced NO production compound pretreated for 1 hr followed by addition of 100 ng/ml LPS for 24 hrs by griess method
Format: functional, cell-based

Point of comparison: `CNC(=N)NCCC[C@H](N)C(=O)O` [TILARGININE], IC50 73.3 µM. Against it:
- COC(=O)c1c(O)c2ccccc2c2nc(C)ccc12 — not separable, > 50 µM
- COC(=O)c1c(O)c2ccccc2c2ncccc12 — not separable, > 50 µM
- COC(=O)C1=C2C=CC(C)(C)OC2(O)c2ccccc2C1=O (stereo unspecified) — 56-fold lower, 1.3 µM
- COC(=O)C1=C2C=CC(C)(C)N=C2c2ccccc2C1=O — 220-fold lower, 0.34 µM

For `COC(=O)C1=C2C=CC(C)(C)N=C2c2ccccc2C1=O`, the inhibition was “Dose-dependent effect”.
